The values below come from patent US7550425B2, “Diuretic peptide conjugates” (Zealand Pharma A/S, priority 2000, dated 2009).

Where two headings read alike, the source gives them in different places.

A short description of the data set: In vitro stability in heparinised human plasma. The format is in vitro ADME. As for the experimental part: In addition, the degradation of Compound 1 of the invention has been studied in heparinised human plama.
The stability of peptides is analysed in human plasma. The peptides are incubated at 37° C. in plasma and samples taken at approx. 8 regular intervals between t=0 and t=390 min for Compound 1 and nociceptin-NH2, and at 9 intervals between t=0 and t=32 min for Compound CE1 are analysed by HPLC. […] This is done by subsequent injections of the drug, plasma, and a co-injection with the drug and the plasma, followed by optimisation of the LC method parameters until a satisfactory separation is obtained. Three parallel experiments are performed for each plasma type. 100 μl of peptide is mixed with 900 μl plasma at t=0 and incubated at 37° C. (drug-plasma mixture conc. 0.1 mg/ml). Samples of 100 μl of the drug-plasma mixture are removed at appropriate intervals and the degradation stopped by precipitation of the sample with 10 μl MeCN:TFA 50:50 v/v. A control plasma sample without the drug treated in the same manner is also taken. The plasma samples are centrifuged for 15 min. at 12,000 rpm (Eppendorf centrifuge) at ambient temperature. The resulting supernatant solution is transferred to 300 μl HP autosamler vials and analyzed by HPLC. HPLC analysis are performed as follows:
Ac-RYYRWK-NH2 (SEQ ID NO: 1) and Compound 1
The samples are analysed in the following order: blank, the peptide at 0.1 mg/mL, the plasma without the peptide, the three parallel samples for t=0, the three parallel samples for t=5 min. the three parallel samples for t=60 min. etc. And finally the three parallel samples for t=0 are repeated to make sure that there have been no degradation or other failure during the analyses. The sample concentrations (peak height in mAU) are plotted vs. time and fitted to a function describing a mono exponential decay (Excel). The half-lives of the peptides in plasma are presented in Table 7 as mean (n=3)±standard deviation.

Consider “Ac-RYYRWKKKKKKK-NH2 [Compound 1, Ac-RYYRWKKKKKKK-NH2]”, for which the half-life at 0.1 mg/ml is 16.2 h (37° C., mean (n=3) +/− deviation, read-out: T1/2 in min (degradation in human heparinised plasma)) and > 16 h (read-out: half life in plasma).
